According to patent US8343990B2, “Substituted cyclopropyl compounds, compositions containing such compounds and methods of treatment” (Merck Sharp & Dohme Corp., priority 2008, dated 2013):

Target: T1, GPR119 receptor (UniProt Q8TDV5, S309L, species not given)
T1 sequence (Q8TDV5 1-335 S309L): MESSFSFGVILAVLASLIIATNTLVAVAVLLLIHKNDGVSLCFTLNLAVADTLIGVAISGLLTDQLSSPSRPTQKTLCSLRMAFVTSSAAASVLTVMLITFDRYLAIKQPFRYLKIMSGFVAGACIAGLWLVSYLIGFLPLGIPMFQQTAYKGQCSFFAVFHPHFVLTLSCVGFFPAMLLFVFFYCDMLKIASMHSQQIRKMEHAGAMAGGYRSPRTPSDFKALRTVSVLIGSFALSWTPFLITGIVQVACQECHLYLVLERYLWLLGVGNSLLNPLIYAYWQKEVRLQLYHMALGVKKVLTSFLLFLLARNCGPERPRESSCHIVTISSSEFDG
Experiment: GPR119 signaling, cyclic AMP (cAMP) homogenous time resolved fluorescence (HTRF) assay
Assay type: cell-based
Details: CHO cells with Gα15 and murine GPR119, or HEK293 Flp-In cells with human GPR119 S309L; table does not say which; read-out: Activity: inflection points, denoted as EC50 values (agonist activation of GPR119, cAMP)
How it was run: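 Agonist-induced cAMP measured in CHO cells expressing Gα15 plus murine GPR119, or HEK293 Flp-In cells expressing human S309L variant. Suspended cells exposed to compound titration 60 min at room temperature, lysed, HTRF read after 60 min; EC50 and efficacy versus internal agonist from 4-parameter fit.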

EC50 | SMILES
50 to 200 nM | N#Cc1ccc(OCC[C@@H]2C[C@@H]2C2CCN(c3ncc(Cl)cn3)CC2)cn1 (racemic) [Ex 54, Rac-cis-5-(2-{2-[1-(5-chloropyrimidin-2-yl)piperidin-4-yl]cyclopropyl}ethoxy)pyridine-2-carbonitrile]
10 to 50 nM | O=C(NC1CC1)c1ccc(OC[C@@H]2C[C@H]2CC2CCN(c3ncc(Cl)cn3)CC2)cc1F [Ex 107, 4-[((1R,2R)-2-{[1-(5-chloropyrimidin-2-yl)piperidin-4-yl]methyl}cyclopropyl)methoxy]-N-cyclopropyl-2-fluorobenzamide]
< 10 nM | Fc1cnc(N2CCC(C3CC3CCOc3ccc(-n4ccnn4)cc3)CC2)nc1 (single isomer, unassigned) [Ex 83bS, cis-5-fluoro-2-[4-(2-{2-[4-(1H-1,2,3-triazol-1-yl)phenoxy]ethyl}cyclopropyl)piperidin-1-yl]pyrimidine]
